Assay results reported in ChEMBL document CHEMBL2016567, “Novel acridinedione derivatives: design, synthesis, SIRT1 enzyme and tumor cell growth inhibition studies” (Bioorg Med Chem Lett, 2012).
Calls of active or inactive are those of the source. The calls are words filed in the database; no cut-off is given here.

What was measured:
K562 = assay: Growth inhibition of human K562 cells; format: functional, cell-based
[1] = biological target: T1, NAD-dependent protein deacetylase sirtuin-1 (Homo sapiens) (UniProt Q96EB6); assay: Inhibition of human SIRT1 using Fluor-de-Lys as substrate at 50 uM
T1 sequence (whole entry): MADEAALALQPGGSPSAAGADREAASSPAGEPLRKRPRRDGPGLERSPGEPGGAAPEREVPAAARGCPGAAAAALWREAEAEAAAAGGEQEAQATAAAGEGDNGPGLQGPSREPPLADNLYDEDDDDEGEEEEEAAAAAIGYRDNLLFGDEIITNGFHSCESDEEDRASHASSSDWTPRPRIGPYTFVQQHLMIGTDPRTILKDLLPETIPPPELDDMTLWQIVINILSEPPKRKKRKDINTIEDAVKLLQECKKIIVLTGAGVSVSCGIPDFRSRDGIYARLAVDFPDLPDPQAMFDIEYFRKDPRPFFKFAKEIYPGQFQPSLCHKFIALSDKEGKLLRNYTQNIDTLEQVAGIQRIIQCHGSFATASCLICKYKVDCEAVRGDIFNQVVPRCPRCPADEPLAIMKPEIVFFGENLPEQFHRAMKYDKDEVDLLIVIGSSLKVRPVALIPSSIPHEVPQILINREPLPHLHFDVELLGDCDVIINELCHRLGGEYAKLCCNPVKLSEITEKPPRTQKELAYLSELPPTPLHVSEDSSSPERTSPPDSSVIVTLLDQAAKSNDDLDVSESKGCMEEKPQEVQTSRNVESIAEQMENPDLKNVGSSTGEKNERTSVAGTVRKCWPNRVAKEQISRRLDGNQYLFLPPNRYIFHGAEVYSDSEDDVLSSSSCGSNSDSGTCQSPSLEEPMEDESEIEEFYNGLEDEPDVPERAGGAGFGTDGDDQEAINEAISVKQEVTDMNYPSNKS

HEK293 = assay: Cytotoxicity against human HEK293 cells at 10 uM; format: cell-based; conditions: hek293, 10 µM
MDA-MB-231 [2] = assay: Growth inhibition of human MDA-MB-231 cells; format: functional, cell-based
[3] = biological target: T2, NAD-dependent protein deacetylase sirtuin-1 (Homo sapiens, UniProt Q96EB6); assay: Inhibition of human SIRT1 using Fluor-de-Lys as substrate
T2 sequence (Q96EB6 whole entry): T1 sequence (whole entry)

MDA-MB-231 [4] = assay: Decrease in SIRT1 protein level in human MDA-MB-231 cells after 24 hrs by Western blot analysis; format: functional, cell-based
[5] = biological target: T1, NAD-dependent protein deacetylase sirtuin-1 (Homo sapiens); assay: Inhibition of SIRT1 in human MDA-MB-231 cells assessed as increase in p53 acetylation at lysine 382 residue after 24 hrs by Western blot analysis; format: cell-based

| SMILES | IC50 (K562) [µM] | inhibition [1] | IC50 (MDA-MB-231 [2]) [µM] | IC50 [3] [µM] | inhibition [5] | Activity (HEK293) | Activity (MDA-MB-231 [4]) |
| --- | --- | --- | --- | --- | --- | --- | --- |
| CC1(C)CC(=O)C2=C(C1)N(NC(=O)c1ccccc1)C1=C(C(=O)CC(C)(C)C1)C2c1ccc(OCc2ccccc2)cc1 |  | 52% | 3.16 | 46 |  | Non-toxic |  |
| CC1(C)CC(=O)C2=C(C1)N(Nc1ccccc1)C1=C(C(=O)CC(C)(C)C1)C2c1ccc(OCc2ccccc2)cc1 |  | 55.2% | 1.38 | 43.1 |  | Non-toxic |  |
| CC1(C)CC(=O)C2=C(C1)N(NC(=O)c1ccc([N+](=O)[O-])cc1)C1=C(C(=O)CC(C)(C)C1)C2c1ccc(OCc2ccccc2)cc1 |  | 35.6% |  |  |  |  |  |
| Cc1ccc(C(=O)Nc2ccc(S(=O)(=O)O)c3cc(S(=O)(=O)O)cc(S(=O)(=O)O)c23)cc1NC(=O)c1cccc(NC(=O)Nc2cccc(C(=O)Nc3cc(C(=O)Nc4ccc(S(=O)(=O)O)c5cc(S(=O)(=O)O)cc(S(=O)(=O)O)c45)ccc3C)c2)c1 [SURAMIN] | 18.5 | 53.9% | 31.2 |  |  | Non-toxic |  |
| CC1(C)CC(=O)C2=C(C1)N(NC(=O)c1ccccc1)C1=C(C(=O)CC(C)(C)C1)C2c1cccc(OCc2ccccc2)c1 |  | 21.5% |  |  |  |  |  |
| COc1ccc(C(=O)NN2C3=C(C(=O)CC(C)(C)C3)C(c3ccc(OCc4ccccc4)cc3)C3=C2CC(C)(C)CC3=O)c(OC)n1 |  | 55.1% | 0.31 | 25 |  | Non-toxic |  |
| CC1(C)CC(=O)C2=C(C1)N(Nc1ccc([N+](=O)[O-])cc1[N+](=O)[O-])C1=C(C(=O)CC(C)(C)C1)C2c1cccc(OCc2ccccc2)c1 |  | 33.2% |  |  |  |  |  |
| CC1(C)CC(=O)C2=C(C1)N(Nc1ccc([N+](=O)[O-])cc1[N+](=O)[O-])C1=C(C(=O)CC(C)(C)C1)C2c1ccccc1OCc1ccccc1 |  | 83.2% | 0.25 | 10.1 | Dose-dependent effect | Non-toxic | Dose-dependent effect |
| CC1(C)CC(=O)C2=C(C1)N(NC(=O)c1ccc(Cl)cc1Cl)C1=C(C(=O)CC(C)(C)C1)C2c1ccc(OCc2ccccc2)cc1 |  | 3.6% |  |  |  |  |  |
| CC1(C)CC(=O)C2=C(C1)N(Nc1ccc([N+](=O)[O-])cc1[N+](=O)[O-])C1=C(C(=O)CC(C)(C)C1)C2c1ccc(OCc2ccccc2)cc1 |  | 54.8% | 6.63 | 43.3 |  | Non-toxic |  |
| CC1(C)CC(=O)C2=C(C1)N(Nc1ccccc1)C1=C(C(=O)CC(C)(C)C1)C2c1ccccc1OCc1ccccc1 |  | 82.1% | 50 | 11.1 |  | Non-toxic |  |
| CC1(C)CC(=O)C2=C(C1)N(NC(=O)c1ccc(Cl)cc1Cl)C1=C(C(=O)CC(C)(C)C1)C2c1cccc(OCc2ccccc2)c1 |  | 4.7% |  |  |  |  |  |
| CC1(C)CC(=O)C2=C(C1)N(NC(=O)c1ccncc1)C1=C(C(=O)CC(C)(C)C1)C2c1ccc(OCc2ccccc2)cc1 | > 50 | inactive | > 50 |  |  | Non-toxic |  |
| CC1(C)CC(=O)C2=C(C1)N(Nc1ccccc1)C1=C(C(=O)CC(C)(C)C1)C2c1cccc(OCc2ccccc2)c1 |  | 51.4% | 0.99 | 40.1 |  | Non-toxic |  |

Second part, led by results:

| IC50 (K562) [µM] | inhibition [1] | IC50 (MDA-MB-231 [2]) [µM] | IC50 [3] [µM] | inhibition [5] | SMILES | Activity (HEK293) | Activity (MDA-MB-231 [4]) |
| --- | --- | --- | --- | --- | --- | --- | --- |
| 10 | 72.6% | 5 |  |  | CC1(C)CC(=O)C2=C(C1)N(NC(=O)c1ccncc1)C1=C(C(=O)CC(C)(C)C1)C2c1ccccc1OCc1ccccc1 | Non-toxic |  |
|  | 35.6% |  |  |  | COc1ccc(C(=O)NN2C3=C(C(=O)CC(C)(C)C3)C(c3cccc(OCc4ccccc4)c3)C3=C2CC(C)(C)CC3=O)c(OC)n1 |  |  |
| 10 | 53.7% | > 50 |  |  | CC1(C)CC(=O)C2=C(C1)N(NC(=O)c1ccncc1)C1=C(C(=O)CC(C)(C)C1)C2c1cccc(OCc2ccccc2)c1 | Non-toxic |  |
|  | 39% |  |  |  | CC1(C)CC(=O)C2=C(C1)N(NC(=O)c1ccc([N+](=O)[O-])cc1)C1=C(C(=O)CC(C)(C)C1)C2c1ccccc1OCc1ccccc1 |  |  |
|  | 39.7% |  |  |  | CC1(C)CC(=O)C2=C(C1)N(NC(=O)c1ccccc1)C1=C(C(=O)CC(C)(C)C1)C2c1ccccc1OCc1ccccc1 |  |  |
|  | 35.2% |  |  |  | COc1ccc(C(=O)NN2C3=C(C(=O)CC(C)(C)C3)C(c3ccccc3OCc3ccccc3)C3=C2CC(C)(C)CC3=O)c(OC)n1 |  |  |
|  |  | 10 |  |  | COc1cccc2c1C(=O)c1c(O)c3c(c(O)c1C2=O)C[C@@](O)(C(=O)CO)C[C@@H]3O[C@H]1C[C@H](N)[C@H](O)[C@H](C)O1 [DOXORUBICIN] | Non-toxic |  |
|  | 33.6% |  |  |  | CC1(C)CC(=O)C2=C(C1)N(NC(=O)c1ccc([N+](=O)[O-])cc1)C1=C(C(=O)CC(C)(C)C1)C2c1cccc(OCc2ccccc2)c1 |  |  |
